SMILES strings stand for the structures. pIC50: −log10 of the molar value. Some results are limits rather than exact numbers.

In one test the target is T1, Coagulation factor VII (Homo sapiens, UniProt P08709).
T1 sequence (P08709 whole entry): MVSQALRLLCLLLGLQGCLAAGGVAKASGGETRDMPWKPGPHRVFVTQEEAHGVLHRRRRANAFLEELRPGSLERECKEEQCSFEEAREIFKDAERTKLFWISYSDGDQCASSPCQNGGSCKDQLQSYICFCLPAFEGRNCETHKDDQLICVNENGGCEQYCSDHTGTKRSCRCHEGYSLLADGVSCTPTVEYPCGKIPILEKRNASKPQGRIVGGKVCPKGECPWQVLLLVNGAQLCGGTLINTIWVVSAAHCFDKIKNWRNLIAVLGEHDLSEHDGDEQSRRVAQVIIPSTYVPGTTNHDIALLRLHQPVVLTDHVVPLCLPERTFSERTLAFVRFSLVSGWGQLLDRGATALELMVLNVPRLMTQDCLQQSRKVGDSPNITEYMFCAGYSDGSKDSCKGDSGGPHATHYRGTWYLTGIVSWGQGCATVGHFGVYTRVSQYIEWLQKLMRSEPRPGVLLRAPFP
The test can be described thus: Inhibitory concentration against recombinant human coagulation factor VII.

Another test addresses Prothrombin (Homo sapiens, UniProt P00734). The test can be described thus: Inhibitory concentration against human thrombin.
In another test the target is Coagulation factor X (Homo sapiens, UniProt P00742). The test can be described thus: Inhibitory concentration against human Coagulation factor X.
Chain of Coagulation factor X (P00742 41-179 limits assumed): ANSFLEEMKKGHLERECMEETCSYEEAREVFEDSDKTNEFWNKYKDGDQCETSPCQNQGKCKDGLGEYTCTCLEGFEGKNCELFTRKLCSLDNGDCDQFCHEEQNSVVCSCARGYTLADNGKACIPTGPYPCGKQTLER
Chain of Coagulation factor X (P00742 235-488 limits assumed): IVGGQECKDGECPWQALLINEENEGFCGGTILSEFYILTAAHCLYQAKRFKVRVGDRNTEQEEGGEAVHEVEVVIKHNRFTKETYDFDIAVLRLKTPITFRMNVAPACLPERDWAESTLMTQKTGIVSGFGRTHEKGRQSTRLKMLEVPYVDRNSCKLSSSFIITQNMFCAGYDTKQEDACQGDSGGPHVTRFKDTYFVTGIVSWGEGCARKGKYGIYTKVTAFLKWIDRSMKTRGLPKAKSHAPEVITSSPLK

Consider `CC(C)Nc1ccc(-c2cc(N)cc(C(=O)O)c2)n(CC(=O)NCc2ccc(C(=N)N)cc2)c1=O`, for which the pIC50 at Coagulation factor VII was 6.93; at Prothrombin, below 4.52; at Coagulation factor X, below 4.52.
`CC(C)Nc1ccc(-c2cc(N)cc(N)c2)n(CC(=O)NCc2ccc(C(=N)N)cc2)c1=O`: on Coagulation factor VII, the pIC50 is 7.28.

For the origin of these results see ChEMBL document CHEMBL1145137, “Design, synthesis, and crystal structure of selective 2-pyridone tissue factor VIIa inhibitors” (J Med Chem, 2003).
